System: Lin28a
Test: Lin28a expression induction in mouse vascular endothelial cell line TKD2 cell (RT-PCR, agarose gel)
Format: cell-based
Settings: 100 μg/mL, cultured for 5 days, FIG. 1
Procedure: Mouse vascular endothelial cell line TKD2 cell (National Institute of Biomedical Innovation, Health, and Nutrition, distributed from JCRB Cell Bank, Cell number: IF050374) was sown in advance in a 6-well plate to be 4×10^4 cells/well, and cultured overnight at 33° C. in 5% CO2 environment.
Subsequently, on the day after the date when the mouse vascular endothelial cell line TKD2 cell was sown, the exocrine secretion of Saccharomyces boulardii prepared in (1) was added to the culture medium to reach a final concentration of 100 μg/mL, and cultured for 5 days while performing addition. After the addition, the culture medium was not exchanged at all. […]
After culturing, the cell was isolated and recovered by using 0.25% of Trypsin-EDTA solution (manufactured by ThermoFisher Corporation, 25200056). […] From the total RNA, cDNA was produced by using ImProm-II (registered trademark) reverse Transcription System (Promega A3801), and expression of Lin28a was monitored by PCR using primers shown in the following Table 1. […]

Which “expression of Lin28a” value does the source give for ganglioside here?
Its value is “expression of Lin28a was not induced”.
